Experimental data from PMC12947280, “An Antifungal with a Novel Mechanism of Action Discovered via Resistance Gene-Guided Genome Mining” (ACS Central Science, 2026).
Values after ≈ are worked out from the molar mass of the structure shown. Like-named read-outs stand apart in the source and are kept apart here.

How the values were obtained:
physchem = settings: buffer, pH 7.4
S. cerevisiae ALS = target: T1, S. cerevisiae ALS (Saccharomyces cerevisiae, UniProt P07342); assay: FAD cofactor reoxidation upon incubation with ALS; type: biochemical; settings: in contrast to accumulative inhibitors 2 and 3
T1 construct: made in house; host or cells: E. coli BL21 (DE3), pET28a-ScILV2

[1] = test system: Scedosporium apiospermum ATCC MYA-3635; assay: Antifungal screening, broth microdilution MIC; type: cell-based; settings: for MIC: Scedosporium apiospermum ATCC MYA-3635
Description: (§1) Antifungal screening of 1
(§2) Antifungal screening was performed by Micromyx, LLC (Kalamazoo, Michigan, USA). Test organisms were either reference strains from the American Type Culture Collection (ATCC; Manassas, VA), the Centers for Disease Control and Prevention (CDC; Atlanta, GA), or clinical isolates from the Micromyx (MMX) collection. Upon receipt at Micromyx, the isolates were streaked under suitable conditions onto agar medium appropriate to each organism. The yeast isolates were incubated for 24 hr at 35 °C and the fungi were incubated for 7 to 13 days at 35 °C, as appropriate. Colonies harvested from these growth plates were resuspended in the appropriate medium containing a cryoprotectant. Aliquots of each suspension were then frozen […]
(§3) Prior to testing, the yeast isolates were streaked from frozen vials onto Sabouraud Dextrose Agar (SAB; Becton Dickenson [BD]/BBL; Sparks, MD, Lot No. 2228660) and were incubated at 35°C for 24 hr. Additional fungal isolates were streaked from frozen vials onto potato dextrose agar (BD/BBL; Sparks, MD, Lot No. 2046481) and incubated under optimal conditions for […]
(§4) All MIC measurements were performed in RPMI1640 from Hyclone Laboratories (Logan, UT;
(§5) Cat. No. SH3001104; Lot No. AC10257966A) buffered with MOPS to pH-7 from Millipore […]
(§6) MIC values were determined using a broth microdilution procedure described by CLSI. 5,6.
(§7) Automated liquid handlers (Multidrop 384, Labsystems, Helsinki, Finland; Biomek 3000 and […]
(§8) Biomek FX, Beckman Coulter Fullerton CA) were used to conduct serial dilutions and liquid […]
(§9) Solutions of 1 were added in an 11 point 2x serial dilution in DMSO with a maximum tested concentration of 32 μg/ml in the culture medium. Drug solution was added at 1% v/v into 200 μl […]
(§10) A standardized inoculum of each test organism was prepared in appropriate media per CLSI methods.5,6 The plates were then inoculated with 10 µL of the diluted inoculum using the Biomek 3000 from low to high drug concentration, resulting in a final concentration of approximately 0.5 to 2.5 x 10^3 CFU/mL for yeast and 0.2 to 2.5 x 10^4 CFU/mL for the other fungi. An un-inoculated plate was incubated for the purpose of assessing solubility of the drug […]
(§11) The plates were stacked 3 to 4 high, covered with a sterile lid on the top plate, and incubated aerobically at 35 °C for 24, 48, and 72 h. For yeast, both the MIC based on complete inhibition and 50% inhibition were reported at 24 and 48 h. For other fungal isolates, the MIC values were recorded at 24 and 48 hr and were based on complete inhibition and 50% inhibition.
(§12) Intact protein LCMS analysis
(§13) 10 μM of recombinant S. cerevisiae ALS was incubated with 10 μM compound 1 in buffer (50 mM Tris pH 7.5, 100 mM KCl, 10 uM FAD, 1 mM TPP, 10 mM MgCl2 (with 2.5% DMSO from compound)) at 22 °C for 30 min. Unreacted 1 was removed by passing the reaction mixture through a 30 kDa MWCO filter (Millipore). The collected protein was then denatured and reduced by incubation with 6 M urea and 10 mM DTT at 37 °C for 1 h followed by 20 mM iodoacetamide alkylation for 30 min in dark. This reaction mixture then underwent buffer exchange into 100 mM Tris-HCl pH 8.0 and 10 mM CaCl2 buffer using a 30 kDa MWCO filter.
(§14) The protein was then incubated with sequencing grade chymotrypsin (Promega) (15:1,w/w) for […]
(§15) After digestion, the peptide mixture was immediately analysed by LC-MS/MS using a Waters I-class UPLC equipped with an ACQUITY UPLC BEH C18 column (2.1x50 mm, 1.7 µm, Waters) at 50 °C coupled to a Waters Synapt G2Si MS. The sample was injected and subjected to an LC gradient starting from 0.5% mobile phase B (ACN with 0.1% formic acid) for 5 min with linear increase to 40% B over 35 min. Mobile phase A was 0.1% formic acid water. Flow rate was maintained at 0.3 ml/min. MS/MS data was acquired in positive ionization mode with data dependent MS/MS acquisition. Peptide mapping was performed with PEAKs Studio 8.0 (Bioinformatics Solutions Inc.) followed by manual review to identify peptides putatively modified by covalent addition of 1. […]

[2] = test system: Mucor circinelloides ATCC 24905; assay: Antifungal screening, broth microdilution MIC; type: cell-based; settings: for MIC: ATCC24905, Mucor circinelloides ATCC 24905
Description: as §1, §2, §3, §4, §5, §6, §7, §8, §9, §10, §11, §12, §13, §14, §15

[3] = test system: Aspergillus flavus ATCC 204304; assay: Antifungal screening, broth microdilution MIC; type: cell-based; settings: for MIC: ATCC204304, Aspergillus flavus ATCC 204304
Description: as §1, §2, §3, §4, §5, §6, §7, §8, §9, §10, §11, §12, §13, §14, §15

[4] = test system: Fusarium oxysporum ATCC 48112; assay: Antifungal screening, broth microdilution MIC; type: cell-based; settings: for MIC: ATCC48112, Fusarium oxysporum ATCC 48112
Description: as §1, §2, §3, §4, §5, §6, §7, §8, §9, §10, §11, §12, §13, §14, §15

[5] = test system: Aspergillus terreus ATCC MYA-3628; assay: Antifungal screening, broth microdilution MIC; type: cell-based; settings: for MIC: Aspergillus terreus ATCC MYA-3628
Description: as §1, §2, §3, §4, §5, §6, §7, §8, §9, §10, §11, §12, §13, §14, §15

[6] = test system: Rhizopus oryzae ATCC 11886; assay: Antifungal screening, broth microdilution MIC; type: cell-based; settings: for MIC: Rhizopus arrhizus, ATCC11886, Rhizopus oryzae ATCC 11886
Description: as §1, §2, §3, §4, §5, §6, §7, §8, §9, §10, §11, §12, §13, §14, §15

[7] = 24 hr, read-out: MIC 100% growth inhibition
[8] = 24 hr, read-out: MIC >50% growth inhibition
[9] = 48 hr, read-out: MIC 100% growth inhibition
[10] = 48 hr, read-out: MIC >50% growth inhibition

T1 sequence (P07342 58-687): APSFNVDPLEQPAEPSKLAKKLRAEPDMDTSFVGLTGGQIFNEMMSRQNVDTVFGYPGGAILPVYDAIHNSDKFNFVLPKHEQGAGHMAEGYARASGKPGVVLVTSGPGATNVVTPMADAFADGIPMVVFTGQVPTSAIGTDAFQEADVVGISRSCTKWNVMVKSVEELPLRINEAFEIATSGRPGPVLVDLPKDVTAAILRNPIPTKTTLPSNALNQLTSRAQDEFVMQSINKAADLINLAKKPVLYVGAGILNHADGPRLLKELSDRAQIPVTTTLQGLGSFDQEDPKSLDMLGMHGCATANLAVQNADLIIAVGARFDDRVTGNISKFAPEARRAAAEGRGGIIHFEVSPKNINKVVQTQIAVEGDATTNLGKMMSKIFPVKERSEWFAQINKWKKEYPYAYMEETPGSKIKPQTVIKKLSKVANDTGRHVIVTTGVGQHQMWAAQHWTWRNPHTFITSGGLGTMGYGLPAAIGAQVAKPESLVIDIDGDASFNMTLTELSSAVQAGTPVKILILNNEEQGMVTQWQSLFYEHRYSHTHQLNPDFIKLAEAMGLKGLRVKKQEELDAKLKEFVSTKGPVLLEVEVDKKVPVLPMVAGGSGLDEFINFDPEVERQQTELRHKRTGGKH

With CCCC1C(C)=CC2CC=CC3(C)C2C1C(=O)C31C(=O)NC(CCCO)C1=O (centres unmarked) [compound 1] the half-life (physchem) was 2.35 h, the “FAD reoxidation upon treatment” value (S. cerevisiae ALS) was “no indication of FAD reoxidation” and the MIC [1, 7] was 8 µg/mL (≈ 20.8 µM). For the same compound, the MIC [1, 8] was 1 µg/mL (≈ 2.59 µM), the MIC [1, 9] was greater than 32 µg/mL and the MIC [1, 10] was greater than 32 µg/mL. For the same compound, the “MIC (Table S5)” value ([1]; Scedosporium apiospermum, species summary) was 8, the MIC [2, 7] was 0.5 µg/mL (≈ 1.3 µM) and the MIC [2, 8] was 0.12 µg/mL (≈ 0.311 µM). For the same compound, the MIC [2, 9] was 16 µg/mL (≈ 41.5 µM), the MIC [2, 10] was 4 µg/mL (≈ 10.4 µM) and the “MIC (Table S5)” value ([2]; Mucor circinelloides, species summary) was 0.5. It also gave an MIC [3, 7] greater than 32 µg/mL, an MIC [3, 8] greater than 32 µg/mL and an MIC [3, 9] greater than 32 µg/mL. The MIC [3, 10] was greater than 32 µg/mL, the “MIC (Table S5)” value ([3]; Aspergillus flavus, species summary) was greater than 32 and the MIC [4, 7] was greater than 32 µg/mL. The MIC [4, 8] was greater than 32 µg/mL, the MIC [4, 9] was greater than 32 µg/mL and the MIC [4, 10] was greater than 32 µg/mL. The “MIC (Table S5)” value ([4]; Fusarium oxysporum, species summary) was greater than 32, the MIC [5, 7] was greater than 32 µg/mL and the MIC [5, 8] was greater than 32 µg/mL. The MIC [5, 9] was greater than 32 µg/mL, the MIC [5, 10] was greater than 32 µg/mL and the “MIC (Table S5)” value ([5]; Aspergillus terreus, species summary) was greater than 32. The MIC [6, 7] was 1 µg/mL (≈ 2.59 µM), the MIC [6, 8] was 0.5 µg/mL (≈ 1.3 µM) and the MIC [6, 9] was 16 µg/mL (≈ 41.5 µM). The MIC [6, 10] was 8 µg/mL (≈ 20.8 µM) and the “MIC (Table S5)” value ([6]; Rhizopus oryzae, species summary) was 1.
